Data published in patent US12497408B2, “Tetracyclic compounds and methods for the treatment of Zika virus infection” (priority 2021, dated 2025).

tested on: ZIKV; assay: ZIKV reporter virus-based antiviral screening on Huh7 cells; assay type: cell-based, Zika virus; settings: Huh7 cells infected with recombinant luciferase reporter ZIKV (MOI about 0.1), 48 hrs, luciferase signal; read-out: EC50
Excerpt: Protocol for ZIKV reporter virus-based antiviral screening on Huh7 cells:
• Human hepatocyte-derived carcinoma cell line (Huh7) 2. Reagents • ViviRen™ Live Cell Substrate (Promega, Cat #E6492) or Nano Glo assay system (Promega: N1130) • White opaque 96-well TC-treated microplates (Corning, Cat #3916) • 96-well Clear V-Bottom TC-treated Microplate (Corning, Cat #3894) • Complete cell culture media: DMEM (Gibco, Cat #10569) supplemented with 10% FBS (HyClone, Cat #SH30071.03IH25-40)+1% MEM Non-Essential Amino Acids Solution 100×(Gibco, Cat #11140050)+1% Penicillin-Streptomycin (10,000 U/mL) (Gibco, Cat #15140122). • Assay media: DMEM media (Gibco, Cat #31053028) supplemented with 2% FBS, 2% GlutaMAX™ Supplement (Gibco Cat #35050061), 1% Sodium Pyruvate solution (Gibco, Cat #11360070), 1% MEM Non-Essential Amino Acids Solution 100× and 1% Penicillin-Streptomycin (10,000 U/mL). • Trypsin-EDTA solution (Gibco, Cat #25200056) 3. Virus • Recombinant ZIKV strain with Renilla luciferase gene (strain FSS-Rlu) or Nano luciferase gene (Strain PRV-Nano, Dakar-Nano) 4. Instruments • BioTek Cytation 5 or other plate-readers for chemiluminescence detection model. • Eppendorf plate centrifuge • Plate shaker • Eppendorf multichannel pipettes Procedures Day 1: Preparation of Cells • Human hepatocyte-derived carcinoma cell line (Huh7) cells were detached from a T-175 flask by using a Trypsin-EDTA solution. The detached cells were suspended in complete culture media in a sterile 50-ml conical tube. • The 50-ml conical tube was centrifuged at 1200×rpm for 3 min at room temperature. • The cells were resuspended in assay media. The cell numbers were counted, and the cells diluted to a density of 3×10^5 cells/ml. • The cells were plated at 50 μl cells per well in White opaque 96-well plates (assay plates). Gently shake the plates to ensure cells to attach to the plate evenly. • The plated cells were incubated in a humidified incubator (37° C. with 5% CO2). Day 2: Infection • 1) Nine serial (2-fold or 3-fold) concentrated compounds were prepared using 90% DMSO solution and DMSO controls in a clear V-bottom 96-well plate (compound plate). • For example:
• 2) The reporter virus stock was diluted to a concentration of 3×10^4 FFU (FFU: focus-forming unit)/ml using the assay media. 200 μl diluted virus per well was aliquoted into a clear V-bottom 96-well plate (mixing plate). • 3) 1 μl above 400×concentrated compound dilutions was added from the compound plate to each well of the mixing plate. The plates were shaken on a plate shaker for 5 min. • 4) 50 μl compound-virus mixture was added into each well of the assay plates (the MOI is about 0.1). The plates were shaken gently by mixing the virus evenly. • An example of the format for assay plate:
• control. • 5) The plates were centrifuged at 1000 rpm for 15 s. • 6) The plates were incubated at 37° C. with 5% CO2 in a humidified incubator for 48 hrs. Day 4: Read Luciferase Signals • 7) The ViviRen™ Live Cell Substrate was diluted in assay media for 3000× folds. 25 μl of diluted substrates was added into each well of the assay plates. • For Nano-Glo assay system, 50 μl diluted substrates (50×fold diluted from the stock in assay buffer) were added. • 8) The plates were incubated at room temperature for 5 min. • 9) Optimally, cell viability is measured using the Promega Cell-titer Glo kit (only used when ZIKV-Rlu was used for infection). • 10) Luciferase signals were read using the Cytation 5 with gain value of 120-150. Data Analysis • a. The luciferase signals from DMSO-treated groups (un-treated controls) were set as 100%. The relative luciferase signals were obtained by normalizing the luciferase signals from each dilution-treated group to that of the controls. • b.

SMILES	EC50 [nM]
COC(=O)N[C@H](C(=O)N1[C@@H](C)CC[C@H]1c1nc(Cl)c(-c2cc3c4c(c2)OCc2cc(-c5[nH]c([C@@H]6CC[C@H](C)N6C(=O)[C@@H](NC(=O)OC)C(C)(C)C(F)(F)F)nc5Cl)cc(c2-4)OC3)[nH]1)C(C)(C)C(F)(F)F [Compound 34, dimethyl ((2S,2′S)-((2S,2′S,5S,5′S)-((5,10-dihydrochromeno[5,4,3-cde]chromene-2,7-diyl)bis(4-chloro-1H-imidazole-5,2-diyl))bis(2-methylpyrrolidine-5,1-diyl))bis(4,4,4-trifluoro-3,3-dimethyl-1-oxobutane-l,2-diyl))dicarbamate]	2.6

same assay, conditions: Zika virus, Huh-7, 48 h, Huh7 cells infected with recombinant luciferase reporter ZIKV (MOI about 0.1), luciferase signal

SMILES	EC50 [nM]
CC(C)[C@H](NC(=O)C1CC1)C(=O)N1CCC[C@H]1c1nc(Cl)c(-c2cc3c4c(c2)OCc2cc(-c5[nH]c([C@@H]6CCCN6C(=O)[C@@H](NC(=O)C6CC6)C(C)C)nc5Cl)cc(c2-4)OC3)[nH]1 [Compound 25, N,N′-((2S,2′S)-((2S,2′S)-((5,10-dihydrochromeno[5,4,3-cde]chromene-2,7-diyl)bis(4-chloro-1H-imidazole-5,2-diyl))bis(pyrrolidine-2,1-diyl))bis(3-methyl-1-oxobutane-1,2-diyl))dicyclopropanecarboxamide]	21.9
COC(=O)N[C@H](C(=O)N1CCC[C@H]1c1nc(Cl)c(-c2cc3c4c(c2)OCc2cc(-c5[nH]c([C@@H]6CCCN6C(=O)[C@@H](NC(=O)OC)C(C)(C)C)nc5Cl)cc(c2-4)OC3)[nH]1)C(C)(C)C [Compound 26, dimethyl ((2S,2′S)-((2S,2′S)-((5,10-dihydrochromeno[5,4,3-cde]chromene-2,7-diyl)bis(4-chloro-1H-imidazole-5,2-diyl))bis(pyrrolidine-2,1-diyl))bis(3,3-dimethyl-1-oxobutane-1,2-diyl))dicarbamate]	1.6
COC(=O)N[C@H](C(=O)N1CCC[C@H]1c1nc(Cl)c(-c2cc3c4c(c2)OCc2cc(-c5[nH]c([C@@H]6CCCN6C(=O)[C@@H](NC(=O)OC)C(C)(C)C(F)(F)F)nc5Cl)cc(c2-4)OC3)[nH]1)C(C)(C)C(F)(F)F [Compound 27, dimethyl ((2S,2′S)-((2S,2′S)-((5,10-dihydrochromeno[5,4,3-cde]chromene-2,7-diyl)bis(4-chloro-1H-imidazole-5,2-diyl))bis(pyrrolidine-2,1-diyl))bis(4,4,4-trifluoro-3,3-dimethyl-1-oxobutane-1,2-diyl))dicarbamate]	2.6
CC[C@H](C)[C@H](NC(=O)OC)C(=O)N1[C@@H](C)CC[C@H]1c1nc(Cl)c(-c2cc3c4c(c2)OCc2cc(-c5[nH]c([C@@H]6CC[C@H](C)N6C(=O)[C@@H](NC(=O)OC)[C@@H](C)CC)nc5Cl)cc(c2-4)OC3)[nH]1 [Compound 28, dimethyl ((2S,2′S,3S,3′S)-((2S,2′S,5S,5′S)-((5,10-dihydrochromeno[5,4,3-cde]chromene-2,7-diyl)bis(4-chloro-1H-imidazole-5,2-diyl))bis(2-methylpyrrolidine-5,1-diyl))bis(3-methyl-1-oxopentane-1,2-diyl))dicarbamate]	1.6
COC(=O)N[C@H](C(=O)N1[C@H](c2nc(Cl)c(-c3cc4c5c(c3)OCc3cc(-c6[nH]c([C@@H]7C[C@@H]8CCC[C@@H]8N7C(=O)[C@@H](NC(=O)OC)C(C)C)nc6Cl)cc(c3-5)OC4)[nH]2)C[C@@H]2CCC[C@@H]21)C(C)C [Compound 29, dimethyl ((2S,2′S)-((2S,2′S,3aS,3a′S,6aS,6a′S)-((5,10-dihydrochromeno[5,4,3-cde]chromene-2,7-diyl)bis(4-chloro-1H-imidazole-5,2-diyl))bis(hexahydrocyclopenta[b]pyrrole-2,1(2H)-diyl))bis(3-methyl-1-oxobutane-1,2-diyl))dicarbamate]	1.8
COC(=O)N[C@H](C(=O)N1[C@H](c2ncc(-c3cc4c5c(c3)OCc3cc(-c6[nH]c([C@@H]7C[C@@H]8CCC[C@@H]8N7C(=O)[C@@H](NC(=O)OC)C(C)C)nc6Cl)cc(c3-5)OC4)[nH]2)C[C@@H]2CCC[C@@H]21)C(C)C [Compound 30, methyl ((S)-1-((2S,3aS,6aS)-2-(4-chloro-5-(7-(2-((2S,3aS,6aS)-1-((methoxycarbonyl)-L-valyl)octahydrocyclopenta[b]pyrrol-2-yl)-1H-imidazol-5-yl)-5,10-dihydrochromeno[5,4,3-cde]chromen-2-yl)-1H-imidazol-2-yl)hexahydrocyclopenta[b]pyrrol-1(2H)-yl)-3-methyl-1-oxobutan-2-yl)carbamate]	8
COC(=O)N[C@H](C(=O)N1[C@@H](C)CC[C@H]1c1nc(Cl)c(-c2cc3c4c(c2)OCc2cc(-c5[nH]c([C@@H]6CC[C@H](C)N6C(=O)[C@@H](NC(=O)OC)C(C)(C)C)nc5Cl)cc(c2-4)OC3)[nH]1)C(C)(C)C [Compound 31, dimethyl ((2S,2′S)-((2S,2′S,5S,5′S)-((5,10-dihydrochromeno[5,4,3-cde]chromene-2,7-diyl)bis(4-chloro-1H-imidazole-5,2-diyl))bis(2-methylpyrrolidine-5,1-diyl))bis(3,3-dimethyl-1-oxobutane-1,2-diyl))dicarbamate]	1.1
CC[C@@H](C)[C@H](NC(=O)OC)C(=O)N1CCC[C@H]1c1nc(Cl)c(-c2cc3c4c(c2)OCc2cc(-c5[nH]c([C@@H]6CCCN6C(=O)[C@@H](NC(=O)OC)[C@H](C)CC)nc5Cl)cc(c2-4)OC3)[nH]1 [Compound 32, dimethyl ((2S,2′S,3R,3′R)-((2S,2′S)-((5,10-dihydrochromeno[5,4,3-cde]chromene-2,7-diyl)bis(4-chloro-1H-imidazole-5,2-diyl))bis(pyrrolidine-2,1-diyl))bis(3-methyl-1-oxopentane-1,2-diyl))dicarbamate]	1.1
CC[C@@H](C)[C@H](NC(=O)OC)C(=O)N1[C@@H](C)CC[C@H]1c1nc(Cl)c(-c2cc3c4c(c2)OCc2cc(-c5[nH]c([C@@H]6CC[C@H](C)N6C(=O)[C@@H](NC(=O)OC)[C@H](C)CC)nc5Cl)cc(c2-4)OC3)[nH]1 [Compound 33, dimethyl ((2S,2′S,3R,3′R)-((2S,2′S,5S,5′S)-((5,10-dihydrochromeno[5,4,3-cde]chromene-2,7-diyl)bis(4-chloro-1H-imidazole-5,2-diyl))bis(2-methylpyrrolidine-5,1-diyl))bis(3-methyl-1-oxopentane-1,2-diyl))dicarbamate]	0.9
COC(=O)N[C@H](C(=O)N1[C@H](c2nc(Cl)c(-c3cc4c5c(c3)OCc3cc(-c6[nH]c([C@@H]7C[C@@H]8CCC[C@@H]8N7C(=O)[C@@H](NC(=O)OC)C(C)(C)C(F)(F)F)nc6Cl)cc(c3-5)OC4)[nH]2)C[C@@H]2CCC[C@@H]21)C(C)(C)C(F)(F)F [Compound 35, dimethyl ((2S,2′S)-((2S,2′S,3aS,3a′S,6aS,6a′S)-((5,10-dihydrochromeno[5,4,3-cde]chromene-2,7-diyl)bis(4-chloro-1H-imidazole-5,2-diyl))bis(hexahydrocyclopenta[b]pyrrole-2,1(2H)-diyl))bis(4,4,4-trifluoro-3,3-dimethyl-1-oxobutane-1,2-diyl))dicarbamate]	4.5
CC[C@H](C)[C@H](NC(=O)OC)C(=O)N1[C@H](c2nc(Cl)c(-c3cc4c5c(c3)OCc3cc(-c6[nH]c([C@@H]7C[C@@H]8CCC[C@@H]8N7C(=O)[C@@H](NC(=O)OC)[C@@H](C)CC)nc6Cl)cc(c3-5)OC4)[nH]2)C[C@@H]2CCC[C@@H]21 [Compound 36, dimethyl ((2S,2′S,3S,3′S)-((2S,2′S,3aS,3a′S,6aS,6a′S)-((5,10-dihydrochromeno[5,4,3-cde]chromene-2,7-diyl)bis(4-chloro-1H-imidazole-5,2-diyl))bis(hexahydrocyclopenta[b]pyrrole-2,1(2H)-diyl))bis(3-methyl-1-oxopentane-1,2-diyl))dicarbamate]	4.3
